assay: Human HepG2 cell viability assay in 384 well format; assay type: toxicity, cell-based; design: dose 125 nL, time 70.5 hour; cytotoxicity at 70.5 h: concentration not given beside the values; conditions: HepG2 cells, read-out: Inhibition

| SMILES | cytotoxicity at 70.5 h |
| --- | --- |
| CNS(=O)(=O)CCn1cc(-c2ccc(NC(C)=O)cc2)nn1 | 3.8% |
| O=C(NCCCc1ccc(F)cc1)c1ccc(N2CCOCC2)cc1 | 2.69% |
| COCCN(Cc1nccs1)c1nc2c(s1)c(C)nn2C | -10.8% |
| c1ccc(OCCNC2CCCN(Cc3noc(C4CC4)n3)C2)cc1 (configuration not stated) | -7.17% |
| CCc1nc(C)c(C(=O)NCCNc2ncccc2C#N)s1 | 19.3% |
| CC(C)c1nnc2ccc(N3CCC(C(=O)NC4CC4)CC3)nn12 | -25% |
| Cc1noc(C2CCCCN2C(=O)NC2CCCC2)n1 (configuration not stated) | -7.87% |
| CC(C)N(C)C(=O)COc1ccc(-c2noc(C3CCCO3)n2)cc1 (configuration not stated) | 5.4% |
| Cc1cc(C(=O)Nc2cnn(CC(=O)NC3CCCC3)c2)c(C)s1 | -6.94% |
| CC(C)N(C)S(=O)(=O)N1CCCC1C(=O)N1CCSCC1 (configuration not stated) | -0.523% |
| COc1ccc(CN(Cc2nc(C)no2)C2CCCCC2)cc1OC | -1.31% |
| CC1CCC(O)(CSc2nnnn2C)CC1 (configuration not stated) | -3.28% |
| COCCCN(C)c1cc(C(F)(F)F)nc(-c2cccnc2)n1 | -5.74% |
| CN1CCCCC12Cc1ccccc1CN(C(=O)c1ccccc1)C2 (configuration not stated) | -5.36% |
| CCn1ncc(-c2nc3c[nH]n(CC)c-3n2)c1C | 0.803% |
| Cc1noc(C)c1CN(Cc1cccs1)C1CCS(=O)(=O)C1 (configuration not stated) | 15.7% |
| O=C(NCC1CC1)c1cc2c(s1)CCN2C(=O)c1ccc(F)cc1 | -9.03% |
| COc1ccc(C2SC(C)=Nc3c2c(=O)[nH]n3C2CCCC2)cc1O (configuration not stated) | -18.9% |
| NC(=O)c1ccc(S(=O)(=O)NC2CCN(Cc3ccccc3)C2=O)cc1 (configuration not stated) | -8.89% |
| CN1CCCN(C(=O)c2cc(CN(C)CCc3ccccc3)on2)CC1 | -10.4% |
| CC(C)OCCCNC(=O)C1CCCN(c2ccc3nncn3n2)C1 (configuration not stated) | -9.82% |

| SMILES | cytotoxicity at 70.5 h |
| --- | --- |
| Cc1cnc(CCN(C)C(=O)c2ccc(O)nc2C)s1 | -2.62% |
| Fc1cnc(N2CCCn3cnc(COc4cccnc4)c3C2)nc1 | -2.49% |
| O=C(c1ccc2c(c1)COC2)N1CCN(CCO)CC1 | -3.79% |
| COC(=O)c1cccc(CNC(=O)c2cc(C(C)C)n(C)n2)c1 | 27.4% |
| O=C(Cc1csc(N2CCNC2=O)n1)NCC1(c2ccccc2)CC1 | 24.5% |
| O=C(c1ccc(-c2ccc(O)nc2)s1)N1CCSCC1 | -14% |
| Cc1cnc(N2CCCC3(CCN(Cc4csc(C)n4)C3=O)C2)nc1 (configuration not stated) | 3.6% |
| COc1ccc([C@@H]2CN(c3cnccn3)C[C@H]2N(C)C)cc1 | 22% |
| COCCN1CCC2(CC1)CC(NC(=O)C(C)C)c1ccccc1O2 (configuration not stated) | -4.05% |
| O=S(=O)(N1CCOCC1)N1CCCCC1CCc1ccc(O)cc1 (configuration not stated) | -1.47% |
| Cc1ccc(C(=O)N2CC[C@H]3[C@@H]2CCC(=O)N3c2ccccc2)cn1 | -12.4% |
| CNS(=O)(=O)c1cccc(CNc2cc(C(F)(F)F)ccn2)c1 | -0.978% |
| N#Cc1cnc(NCCCN2C(=O)COc3ccccc32)c(Cl)c1 | 2.01% |
| CC(C)C(CCO)NC(=O)Nc1ccc(-c2csnn2)cc1 (configuration not stated) | -5.31% |
| Cc1csc(C(=O)NCCn2nc(-n3cncn3)ccc2=O)c1 | -6.83% |
| c1cc(CNCC2CNc3ccnn3C2)cc(OC2CCCC2)n1 (configuration not stated) | -5.92% |
| Cn1cc(-c2cnc(N3CCCC3)nc2)cc1C(=O)O | 1.36% |
| CSc1ncc(C(=O)NCCn2nccc2C)cn1 | -2.28% |
| O=c1c(NCCOCCO)c(N2CCN(c3ccccc3)CC2)c1=O | -2.63% |
| CCc1c(C)n(CC(=O)OC)c2nc3ccccc3n2c1=O | -14.1% |
| COc1ccccc1OCC(=O)NS(=O)(=O)c1ccc(Cl)s1 | -2.89% |

| SMILES | cytotoxicity at 70.5 h |
| --- | --- |
| COc1ccc(CCN(C)CCS(=O)(=O)c2ccc(Cl)cc2)cc1OC | -13.8% |
| CC(C)N(CC(=O)Nc1ccc(Br)cc1Cl)Cc1cccnc1 | 38.4% |
| CCOCCCNC(=O)c1nn(CC)cc1Cl | 21.2% |
| CCc1cnc(N2C[C@@H]3[C@@H](C(=O)NC(C)C)CCS(=O)(=O)[C@@H]3C2)nc1 | 0.524% |
| Cc1ccc(NC(C)C(=O)N(C)Cc2cccc(F)c2)cc1C(N)=O (configuration not stated) | -4.3% |
| CCc1n[nH]c(C2CN(C(=O)CCn3ccccc3=O)CCO2)n1 (configuration not stated) | -2.35% |
| Cc1csc2ncc(-c3ccnc(N4CCCN(C)CC4)n3)c(=O)n12 | -0.0913% |
| CC(C)=CCN1CCN(Cc2ncc[nH]2)[C@H]2CS(=O)(=O)C[C@H]21 | -4.55% |
| CCN(Cc1noc(C(C)(C)C)n1)Cc1ccc(C#N)cc1F | -6.26% |
| C1CCC(c2nc3c(c(N4CC(N5CCOCC5)C4)n2)CCNCC3)C1 | -8.17% |
| Cc1ccc(CNC(=O)C2CCN(C(=O)C(C)C)CC2)n1C | -9.28% |
| CN(C)c1ccc(C(O)CNC(=O)NCCCc2ccccc2)cc1 (configuration not stated) | -9.74% |
| CC(OCc1ccccc1)C(=O)NC1CCN(CC(N)=O)CC1 (configuration not stated) | -6.55% |
| CCc1nc(C)sc1CN1C[C@@H](C)[C@@](C)(O)C1 | -11.2% |
| CN1CC2(CCN(c3nc(N)nc4c3CCNC4)CC2)OC1=O | -8.95% |
| c1cnn(CC2CCCCN2Cc2nc(-c3ccoc3)no2)c1 (configuration not stated) | 3.95% |
| c1coc(CN2Cc3nccn3CC(Cn3cncn3)C2)c1 (configuration not stated) | 1.12% |
| Cc1ccoc1C(=O)N1C[C@@H]2[C@@H](C1)OCC(=O)N2Cc1cccnc1 | 29.7% |
| CN1CCN(c2ccc3ccc(C(=O)N4CCCCO4)cn23)CC1 | -6.94% |
| CC(C)OCCSCCn1nc2ccccn2c1=O | -12.9% |
| CCn1cc(S(=O)(=O)N2CCC(C3CCCCN(C)C3=O)CC2)c(C)n1 (configuration not stated) | 7.12% |

| SMILES | cytotoxicity at 70.5 h |
| --- | --- |
| Cc1cc(NC(=O)N2CCOCC2)nn1-c1ccccc1Cl | -5.4% |
| CCN(Cc1ccc2c(c1)OCO2)S(=O)(=O)N(C)C | 0.18% |
| CCC(C)(NCC(=O)OC)c1nccs1 (configuration not stated) | -2.64% |
| CC1CCc2n[nH]c(C(=O)NCCCc3ccco3)c2C1 (configuration not stated) | -2.37% |
| Cc1cc(-n2c(C)cn(CN(C)CC3CC3)c2=O)no1 | -1.13% |
| CN(C)C(=O)c1cccc(NC(=O)Cc2cc(F)ccc2F)n1 | 1.76% |
| O=C(Nc1ccc(Cn2cccn2)cc1)N1CCC2(CC1)OCCO2 | 22.5% |
| CN(Cc1nc(Cc2cccc(C(F)(F)F)c2)no1)C1CCCCC1 | -10.4% |
| CS(=O)(=O)CCn1ccc(NC(=O)c2c(F)cccc2F)n1 | -12.1% |
| Cc1cnc(N2CCCC3(CCCN3CC(=O)N(C)C)C2)nc1 (configuration not stated) | 12.8% |
| CN1CCN(C(=O)N2CCC3(CCCN(C4CCOCC4)C3=O)C2)CC1 (configuration not stated) | -0.535% |
| Cc1noc(C)c1CC(=O)NCCc1cccs1 | 7.71% |
| Cc1nccn1-c1cc(CNC(=O)NCC2CCCO2)ccn1 (configuration not stated) | -0.7% |
| Cc1ccccc1N1CC2(CCN(c3nncs3)C2)CC1=O (configuration not stated) | -1.13% |
| CC(C)N(C)CC(=O)N1CCCC(c2ccc(C(=O)O)cc2)C1 (configuration not stated) | -5.3% |
| CCOC(C)c1nccn1CC(=O)Nc1cc(C)on1 (configuration not stated) | -0.0484% |
| O=c1c(CN2CCOCC2)coc(O)c1CN1CCOCC1 | -7.31% |
| CC(C)(C)CC(=O)N1CC[C@@H](CC(=O)O)[C@@H](CCN2CCCCC2)C1 | 8.46% |
| CN(C)C(=O)[C@@H]1CC[C@@H]2[C@@H](CCN2Cc2nccs2)O1 | -14.7% |
